Read-outs that look alike come from different tables or passages of the source.
Legend:
[1] = system: patients with Wilson disease (WD); test: Study 301: Clinical Global Impression scales (CGI-I, CGI-S); assay type: in vivo, human
From the text: Clinical Global Impression-[…]: The Clinical Global Impression (CGI) rating scales were commonly used measures of symptom severity, treatment response, and the efficacy of treatments in treatment studies of adult and pediatric patients with mental disorders.
The Clinical Global Impression-Severity scale (CGI-S) is a 7-point scale that requires the clinician to rate the severity of the patient's illness at the time of assessment, relative to the clinician's past experience with patients who have the same diagnosis. Considering total clinical experience, a patient was assessed on severity of illness at the time of rating as: 1, normal, not at all ill; 2, borderline ill; 3, mildly ill; 4, moderately ill; 5, markedly ill; 6, severely ill; or 7, extremely ill.
While transformed CGI-I (TCGI-I) assesses how the WD patients condition changed compared to baseline, CGI-I may indicate the overall clinical improvement of the patients in the study compared to baseline for each treatment arm.

[2] = system: patients with Wilson disease (WD); settings: for Transformed CGI-I Mean (SD): scores −3 (Very much improved) to 3 (Very much worse)
From the text: Dose modification, if required, was made as described herein.

## Bis-choline tetrathiomolybdate [BC-TTM]
[1]; Study 301, FIG. 22
  CGI-I scores at week 48 versus SoC: improvements
[1]; Study 301, Full Analysis Set
  CGI-S (1-7, 1 is normal), Change from Baseline at 48 weeks, Mean: −0.5
  CGI-S, Difference at 48 weeks, LSM (SE), BC-TTM vs SoC: −0.2 (0.13)
  T-CGI-I (−3 to 3, −3 is very much improved) at 48 weeks, Mean: −0.7
  T-CGI-I, Difference at 48 weeks, LSM (SE), BC-TTM vs SoC: −0.3 (0.15)
[2]; Baseline
  CGI-S (1 to 7, 1 is normal) Mean: 2.7
  UWDRS Part II (0-40) Mean: 3.4
  UWDRS Part III (0-175) Mean: 13.99
  UWDRS Part III functional subscale (0-10) Mean: 1.390
  UWDRS Part III-arising from chair (0-4) Mean: 0.3
  UWDRS Part III-gait (0-4) Mean: 1.40
  UWDRS Part III-handwriting (0-4) Mean: 0.6
  UWDRS Part III-speech (0-4) Mean: 0.8
[2]; Study 301 extension period, interim
  key secondary endpoints (UWDRS, CGI) versus baseline: statistically significant improvements from baseline
[2]; Week 24
  CGI-S (1 to 7, 1 is normal) LSM (SE) change from baseline: −0.3 (0.07)
  CGI-S (1 to 7, 1 is normal) Mean (SD) change from baseline: −0.2 (0.79)
  UWDRS Part II (0-40) LSM (SE) change from baseline: −0.4 (0.20)
  UWDRS Part II (0-40) Mean (SD) change from baseline: −0.3 (1.99)
  UWDRS Part III (0-175) LSM (SE) change from baseline: −1.32 (0.619)
  UWDRS Part III (0-175) Mean (SD) change from baseline: −0.74 (5.937)
  UWDRS Part III functional subscale (0-10) LSM (SE) change from baseline: −0.158 (0.0547)
  UWDRS Part III functional subscale (0-10) Mean (SD) change from baseline: −0.139 (0.4540)
  UWDRS Part III-arising from chair (0-4) LSM (SE) change from baseline: −0.1 (0.03)
  UWDRS Part III-arising from chair (0-4) Mean (SD) change from baseline: 0.0 (0.38)
  UWDRS Part III-gait (0-4) LSM (SE) change from baseline: −0.21 (0.100)
  UWDRS Part III-gait (0-4) Mean (SD) change from baseline: −0.17 (1.113)
  UWDRS Part III-handwriting (0-4) LSM (SE) change from baseline: 0.0 (0.04)
  UWDRS Part III-handwriting (0-4) Mean (SD) change from baseline: −0.1 (0.38)
  UWDRS Part III-speech (0-4) LSM (SE) change from baseline: −0.1 (0.04)
  UWDRS Part III-speech (0-4) Mean (SD) change from baseline: −0.1 (0.38)
  Transformed CGI-I Mean (SD): −0.5 (0.82)
[2]; Week 48
  CGI-S (1 to 7, 1 is normal) LSM (SE) change from baseline: −0.4 (0.07)
  CGI-S (1 to 7, 1 is normal) Mean (SD) change from baseline: −0.5 (0.94)
  UWDRS Part II (0-40) LSM (SE) change from baseline: −0.7 (0.21)
  UWDRS Part II (0-40) Mean (SD) change from baseline: −0.7 (2.70)
  UWDRS Part III (0-175) LSM (SE) change from baseline: −2.47 (0.638)
  UWDRS Part III (0-175) Mean (SD) change from baseline: −2.32 (7.735)
  UWDRS Part III functional subscale (0-10) LSM (SE) change from baseline: −0.230 (0.0569)
  UWDRS Part III functional subscale (0-10) Mean (SD) change from baseline: −0.235 (0.6976)
  UWDRS Part III-arising from chair (0-4) LSM (SE) change from baseline: 0.0 (0.04)
  UWDRS Part III-arising from chair (0-4) Mean (SD) change from baseline: 0.0 (0.40)
  UWDRS Part III-gait (0-4) LSM (SE) change from baseline: −0.26 (0.104)
  UWDRS Part III-gait (0-4) Mean (SD) change from baseline: −0.18 (1.262)
  UWDRS Part III-handwriting (0-4) LSM (SE) change from baseline: −0.1 (0.04)
  UWDRS Part III-handwriting (0-4) Mean (SD) change from baseline: −0.2 (0.59)
  UWDRS Part III-speech (0-4) LSM (SE) change from baseline: −0.1 (0.04)
  UWDRS Part III-speech (0-4) Mean (SD) change from baseline: −0.1 (0.53)
  Transformed CGI-I Mean (SD): −0.7 (0.91)
[2]; Week 72
  CGI-S (1 to 7, 1 is normal) LSM (SE) change from baseline: −0.5 (0.07)
  CGI-S (1 to 7, 1 is normal) Mean (SD) change from baseline: −0.6 (1.10)
  UWDRS Part II (0-40) LSM (SE) change from baseline: −1.0 (0.22)
  UWDRS Part II (0-40) Mean (SD) change from baseline: −1.2 (2.92)
  UWDRS Part III (0-175) LSM (SE) change from baseline: −3.47 (0.672)
  UWDRS Part III (0-175) Mean (SD) change from baseline: −3.27 (9.840)
  UWDRS Part III functional subscale (0-10) LSM (SE) change from baseline: −0.253 (0.0604)
  UWDRS Part III functional subscale (0-10) Mean (SD) change from baseline: −0.290 (0.8908)
  UWDRS Part III-arising from chair (0-4) LSM (SE) change from baseline: −0.1 (0.04)
  UWDRS Part III-arising from chair (0-4) Mean (SD) change from baseline: −0.1 (0.57)
  UWDRS Part III-gait (0-4) LSM (SE) change from baseline: −0.15 (0.110)
  UWDRS Part III-gait (0-4) Mean (SD) change from baseline: −0.12 (1.321)
  UWDRS Part III-handwriting (0-4) LSM (SE) change from baseline: −0.2 (0.05)
  UWDRS Part III-handwriting (0-4) Mean (SD) change from baseline: −0.2 (0.59)
  UWDRS Part III-speech (0-4) LSM (SE) change from baseline: −0.1 (0.04)
  UWDRS Part III-speech (0-4) Mean (SD) change from baseline: −0.1 (0.51)
  Transformed CGI-I Mean (SD): −0.5 (0.86)
[2]; Week 96
  CGI-S (1 to 7, 1 is normal) LSM (SE) change from baseline: −0.5 (0.09)
  CGI-S (1 to 7, 1 is normal) Mean (SD) change from baseline: −0.6 (0.97)
  UWDRS Part II (0-40) LSM (SE) change from baseline: −1.1 (0.30)
  UWDRS Part II (0-40) Mean (SD) change from baseline: −1.1 (3.61)
  UWDRS Part III (0-175) LSM (SE) change from baseline: −4.77 (0.865)
  UWDRS Part III (0-175) Mean (SD) change from baseline: −4.09 (10.827)
  UWDRS Part III functional subscale (0-10) LSM (SE) change from baseline: −0.386 (0.0801)
  UWDRS Part III functional subscale (0-10) Mean (SD) change from baseline: −0.503 (0.9648)
  UWDRS Part III-arising from chair (0-4) LSM (SE) change from baseline: −0.1 (0.05)
  UWDRS Part III-arising from chair (0-4) Mean (SD) change from baseline: −0.2 (0.76)
  UWDRS Part III-gait (0-4) LSM (SE) change from baseline: −0.12 (0.143)
  UWDRS Part III-gait (0-4) Mean (SD) change from baseline: −0.11 (1.390)
  UWDRS Part III-handwriting (0-4) LSM (SE) change from baseline: −0.3 (0.06)
  UWDRS Part III-handwriting (0-4) Mean (SD) change from baseline: −0.4 (0.66)
  UWDRS Part III-speech (0-4) LSM (SE) change from baseline: −0.2 (0.05)
  UWDRS Part III-speech (0-4) Mean (SD) change from baseline: −0.2 (0.57)
  Transformed CGI-I Mean (SD): −0.5 (0.98)
[2]; Week 120
  CGI-S (1 to 7, 1 is normal) LSM (SE) change from baseline: −0.7 (0.11)
  CGI-S (1 to 7, 1 is normal) Mean (SD) change from baseline: −0.6 (1.06)
  UWDRS Part II (0-40) LSM (SE) change from baseline: −1.7 (0.35)
  UWDRS Part II (0-40) Mean (SD) change from baseline: −1.4 (3.48)
  UWDRS Part III (0-175) LSM (SE) change from baseline: −5.27 (1.016)
  UWDRS Part III (0-175) Mean (SD) change from baseline: −4.08 (11.618)
  UWDRS Part III functional subscale (0-10) LSM (SE) change from baseline: −0.392 (0.0952)
  UWDRS Part III functional subscale (0-10) Mean (SD) change from baseline: −0.410 (1.1867)
  UWDRS Part III-arising from chair (0-4) LSM (SE) change from baseline: −0.1 (0.06)
  UWDRS Part III-arising from chair (0-4) Mean (SD) change from baseline: −0.2 (0.83)
  UWDRS Part III-gait (0-4) LSM (SE) change from baseline: 0.04 (0.172)
  UWDRS Part III-gait (0-4) Mean (SD) change from baseline: 0.26 (1.683)
  UWDRS Part III-handwriting (0-4) LSM (SE) change from baseline: −0.3 (0.07)
  UWDRS Part III-handwriting (0-4) Mean (SD) change from baseline: −0.5 (0.68)
  UWDRS Part III-speech (0-4) LSM (SE) change from baseline: −0.2 (0.06)
  UWDRS Part III-speech (0-4) Mean (SD) change from baseline: −0.1 (0.61)
  Transformed CGI-I Mean (SD): −0.7 (0.92)
[2]; Week 144
  CGI-S (1 to 7, 1 is normal) LSM (SE) change from baseline: −0.6 (0.12)
  CGI-S (1 to 7, 1 is normal) Mean (SD) change from baseline: −0.6 (0.78)
  UWDRS Part II (0-40) LSM (SE) change from baseline: −2.0 (0.39)
  UWDRS Part II (0-40) Mean (SD) change from baseline: −2.0 (4.68)
  UWDRS Part III (0-175) LSM (SE) change from baseline: −6.38 (1.112)
  UWDRS Part III (0-175) Mean (SD) change from baseline: −5.99 (12.215)
  UWDRS Part III functional subscale (0-10) LSM (SE) change from baseline: −0.489 (0.1046)
  UWDRS Part III functional subscale (0-10) Mean (SD) change from baseline: −0.573 (1.2617)
  UWDRS Part III-arising from chair (0-4) LSM (SE) change from baseline: −0.2 (0.07)
  UWDRS Part III-arising from chair (0-4) Mean (SD) change from baseline: −0.3 (1.03)
  UWDRS Part III-gait (0-4) LSM (SE) change from baseline: −0.25 (0.186)
  UWDRS Part III-gait (0-4) Mean (SD) change from baseline: 0.00 (1.950)
  UWDRS Part III-handwriting (0-4) LSM (SE) change from baseline: −0.3 (0.08)
  UWDRS Part III-handwriting (0-4) Mean (SD) change from baseline: −0.5 (0.59)
  UWDRS Part III-speech (0-4) LSM (SE) change from baseline: −0.3 (0.07)
  UWDRS Part III-speech (0-4) Mean (SD) change from baseline: −0.2 (0.59)
  Transformed CGI-I Mean (SD): −0.7 (0.76)
